Data reported in PubChem BioAssay (NCI).
Where “and” joins values, the source holds several entries; their conditions need not be identical. Identical values can stand only once.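 Method: 48-hour compound exposure of cells in 96-well plates, five concentrations, linear interpolation of endpoints. The concentration for 50% growth inhibition is given as GI50. TGI is the concentration that stops growth completely.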

What was measured:
Assay in all cases: DTP human tumour cell line panel, 48 h; in the data active = GI50 below about 0.43 µM; inactive = the rest
786-0 renal = tested on: 786-0 renal
A549 NSCLC = tested on: A549 NSCLC
ACHN renal = tested on: ACHN renal
BT-549 breast = tested on: BT-549 breast
CAKI-1 renal = tested on: CAKI-1 renal
CCRF-CEM leukemia = tested on: CCRF-CEM leukemia
COLO 205 colon = tested on: COLO 205 colon
DU-145 prostate = tested on: DU-145 prostate
EKVX NSCLC = tested on: EKVX NSCLC
HCC-2998 colon = tested on: HCC-2998 colon
HCT-116 colon = tested on: HCT-116 colon
HCT-15 colon = tested on: HCT-15 colon
HL-60(TB) leukemia = tested on: HL-60(TB) leukemia
HOP-62 NSCLC = tested on: HOP-62 NSCLC
HOP-92 NSCLC = tested on: HOP-92 NSCLC
HT29 colon = tested on: HT29 colon
IGROV1 ovarian = tested on: IGROV1 ovarian
K-562 leukemia = tested on: K-562 leukemia
KM12 colon = tested on: KM12 colon
LOX IMVI melanoma = tested on: LOX IMVI melanoma
M14 melanoma = tested on: M14 melanoma
MALME-3M melanoma = tested on: MALME-3M melanoma
MCF7 breast = tested on: MCF7 breast
MDA-MB-231 breast = tested on: MDA-MB-231 breast
MDA-MB-435 = tested on: MDA-MB-435
MDA-N = tested on: MDA-N
MOLT-4 leukemia = tested on: MOLT-4 leukemia
NCI-H226 lung = tested on: NCI-H226 lung
NCI-H23 lung = tested on: NCI-H23 lung
NCI-H460 lung = tested on: NCI-H460 lung
NCI-H522 lung = tested on: NCI-H522 lung
NCI/ADR-RES ovarian = tested on: NCI/ADR-RES ovarian
OVCAR-3 ovarian = tested on: OVCAR-3 ovarian
OVCAR-4 ovarian = tested on: OVCAR-4 ovarian
OVCAR-5 ovarian = tested on: OVCAR-5 ovarian
OVCAR-8 ovarian = tested on: OVCAR-8 ovarian
PC-3 prostate = tested on: PC-3 prostate
RPMI-8226 leukemia = tested on: RPMI-8226 leukemia
RXF 393 renal = tested on: RXF 393 renal
SF-268 CNS = tested on: SF-268 CNS
SF-295 CNS = tested on: SF-295 CNS
SF-539 CNS = tested on: SF-539 CNS
SK-MEL-2 melanoma = tested on: SK-MEL-2 melanoma
SK-MEL-28 melanoma = tested on: SK-MEL-28 melanoma
SK-MEL-5 melanoma = tested on: SK-MEL-5 melanoma
SK-OV-3 ovarian = tested on: SK-OV-3 ovarian
SN12C renal = tested on: SN12C renal
SNB-19 CNS = tested on: SNB-19 CNS
SNB-75 CNS = tested on: SNB-75 CNS
SR leukemia = tested on: SR leukemia
SW-620 colon = tested on: SW-620 colon
T-47D breast = tested on: T-47D breast
TK-10 renal = tested on: TK-10 renal
U251 CNS = tested on: U251 CNS
UACC-257 melanoma = tested on: UACC-257 melanoma
UACC-62 melanoma = tested on: UACC-62 melanoma
UO-31 renal = tested on: UO-31 renal
A498 renal = tested on: A498 renal
HS 578T breast = tested on: HS 578T breast

Cc1cc(NS(=O)(=O)c2ccc(NC(=O)c3cccc4c(NNc5ccc(S(N)(=O)=O)cc5)c5ccccc5nc34)cc2)no1
91.7 µM: TGI (NCI-H226 lung)
> 100 µM: TGI (786-0 renal) | TGI (A549 NSCLC) | TGI (ACHN renal) | TGI (BT-549 breast) | TGI (CAKI-1 renal) | TGI (COLO 205 colon) | TGI (DU-145 prostate) | TGI (EKVX NSCLC) | TGI (HCT-116 colon) | TGI (HCT-15 colon) | TGI (HOP-62 NSCLC) | TGI (IGROV1 ovarian) | TGI (K-562 leukemia) | TGI (KM12 colon) | TGI (M14 melanoma) | TGI (MALME-3M melanoma) | TGI (MCF7 breast) | TGI (MDA-MB-231 breast) | TGI (MDA-MB-435) | TGI (MDA-N) | TGI (NCI-H23 lung) | TGI (NCI-H460 lung) | TGI (NCI/ADR-RES ovarian) | TGI (OVCAR-4 ovarian) | TGI (OVCAR-5 ovarian) | TGI (OVCAR-8 ovarian) | TGI (PC-3 prostate) | TGI (RPMI-8226 leukemia) | TGI (RXF 393 renal) | TGI (SF-268 CNS) | TGI (SF-295 CNS) | TGI (SF-539 CNS) | TGI (SK-MEL-5 melanoma) | TGI (SK-OV-3 ovarian) | TGI (SN12C renal) | TGI (SNB-19 CNS) | TGI (SW-620 colon) | TGI (T-47D breast) | TGI (TK-10 renal) | TGI (UACC-257 melanoma) | TGI (UACC-62 melanoma) | TGI (UO-31 renal)
61 µM: TGI (SK-MEL-2 melanoma)
76.5 µM: TGI (HL-60(TB) leukemia)
96.6 µM: TGI (SNB-75 CNS)
73.2 µM: TGI (HT29 colon)
89 µM: TGI (SK-MEL-28 melanoma)
87.9 µM: TGI (MOLT-4 leukemia)
82 µM: TGI (HOP-92 NSCLC)
86.1 µM: TGI (LOX IMVI melanoma)
71.1 µM: TGI (OVCAR-3 ovarian)
63.6 µM: TGI (U251 CNS)
66.2 µM: TGI (CCRF-CEM leukemia)
72.8 µM: TGI (NCI-H522 lung)
93.2 µM: TGI (SR leukemia)
92.9 µM: TGI (HCC-2998 colon)

COc1ccc(-c2c(C(C)=O)c(-c3ccccc3)n(C3OC(COC(C)=O)C(OC(C)=O)C(OC(C)=O)C3OC(C)=O)c(=S)c2C#N)cc1O (configuration not stated)
45.6 µM and > 100 µM: TGI (HOP-62 NSCLC)
37.4 µM and > 100 µM: TGI (NCI-H460 lung)
79.3 µM and > 100 µM: TGI (EKVX NSCLC)
57.5 µM and > 100 µM: TGI (COLO 205 colon)
98.8 µM and > 100 µM: TGI (OVCAR-4 ovarian)
> 100 µM: TGI (786-0 renal) | TGI (A498 renal) | TGI (A549 NSCLC) | TGI (ACHN renal) | TGI (CAKI-1 renal) | TGI (CCRF-CEM leukemia) | TGI (HCT-116 colon) | TGI (HCT-15 colon) | TGI (HL-60(TB) leukemia) | TGI (HS 578T breast) | TGI (HT29 colon) | TGI (K-562 leukemia) | TGI (LOX IMVI melanoma) | TGI (M14 melanoma) | TGI (MCF7 breast) | TGI (MDA-MB-435) | TGI (MOLT-4 leukemia) | TGI (NCI-H23 lung) | TGI (NCI/ADR-RES ovarian) | TGI (OVCAR-5 ovarian) | TGI (PC-3 prostate) | TGI (RXF 393 renal) | TGI (SF-268 CNS) | TGI (SF-295 CNS) | TGI (SK-MEL-28 melanoma) | TGI (SK-MEL-5 melanoma) | TGI (SN12C renal) | TGI (SNB-19 CNS) | TGI (SR leukemia) | TGI (SW-620 colon) | TGI (U251 CNS) | TGI (UACC-257 melanoma) | TGI (UO-31 renal)
61.3 µM and > 100 µM: TGI (RPMI-8226 leukemia)
40.5 µM and 55.9 µM: TGI (MALME-3M melanoma)
41 µM and > 100 µM: TGI (OVCAR-3 ovarian)
42 µM and 80.5 µM: TGI (HCC-2998 colon)
81.5 µM and > 100 µM: TGI (MDA-N)
35.6 µM and > 100 µM: TGI (IGROV1 ovarian)
inactive: GI50 (CCRF-CEM leukemia) 23.6 µM and 70.2 µM | GI50 (COLO 205 colon) 21 µM and 47.7 µM | GI50 (HOP-62 NSCLC) 20.1 µM and > 100 µM | GI50 (HOP-92 NSCLC) 43.9 µM and 17.3 µM | GI50 (IGROV1 ovarian) 12.4 µM and 38.2 µM | GI50 (M14 melanoma) 36.2 µM and 93 µM | GI50 (MOLT-4 leukemia) 18.2 µM and 52.8 µM | GI50 (NCI-H460 lung) 10.8 µM and 43.5 µM | GI50 (RPMI-8226 leukemia) 11.3 µM and 47.5 µM | GI50 (SF-268 CNS) 32.6 µM and 76.2 µM | GI50 (SK-MEL-28 melanoma) 27.2 µM and 65.9 µM
56.6 µM and > 100 µM: TGI (KM12 colon)
94.3 µM and > 100 µM: TGI (DU-145 prostate)
53.6 µM and > 100 µM: TGI (UACC-62 melanoma)
82.5 µM and > 100 µM: TGI (HOP-92 NSCLC)
72.2 µM: TGI (BT-549 breast)
35.9 µM and 47.7 µM: TGI (NCI-H522 lung)

O=c1[nH]cc(F)c(=O)[nH]1
> 100 µM and 1560 µM and 298 µM: TGI (HL-60(TB) leukemia)
2390 µM and > 2500 µM: TGI (MDA-N)
inactive: GI50 (A498 renal) 4.81 µM and 5.2 µM | GI50 (BT-549 breast) 7.32 µM and 6.94 µM and 27.1 µM | GI50 (CCRF-CEM leukemia) 9.86 µM and 8.53 µM | GI50 (HS 578T breast) > 100 µM and 14.3 µM | GI50 (IGROV1 ovarian) 6.13 µM and 2.37 µM and 20.6 µM | GI50 (K-562 leukemia) 4.75 µM and 12 µM | GI50 (MOLT-4 leukemia) 6.25 µM and 0.871 µM | GI50 (NCI-H226 lung) 23.9 µM and 59.6 µM and 186 µM | GI50 (NCI-H522 lung) 11 µM and 11.5 µM and 82.9 µM | GI50 (RXF 393 renal) 25.9 µM and 2.91 µM and 23.8 µM | GI50 (SF-295 CNS) 6.45 µM and 0.721 µM | GI50 (SK-MEL-28 melanoma) 5.99 µM and 1.5 µM | GI50 (SR leukemia) 1.26 µM and 0.514 µM | GI50 (T-47D breast) 7.97 µM and 9.73 µM and 17.6 µM
1990 µM and > 1040 µM: TGI (CCRF-CEM leukemia)
2190 µM and > 1830 µM: TGI (K-562 leukemia)
> 100 µM and 2040 µM and > 2500 µM: TGI (HOP-92 NSCLC)
> 100 µM and 2090 µM and > 1390 µM: TGI (BT-549 breast)
> 100 µM and 2190 µM and > 2500 µM: TGI (SK-MEL-2 melanoma)
> 100 µM and 1990 µM and 2430 µM: TGI (SNB-75 CNS)
> 100 µM and 2250 µM and > 2500 µM: TGI (EKVX NSCLC) | TGI (PC-3 prostate)
> 100 µM and 2280 µM and > 2500 µM: TGI (SF-268 CNS)
> 100 µM and > 33.4 µM and 609 µM: TGI (SR leukemia)
> 100 µM and 2440 µM and > 2360 µM: TGI (SW-620 colon)
> 100 µM and 2170 µM and > 2500 µM: TGI (NCI-H226 lung)
> 100 µM and 2160 µM and > 2500 µM: TGI (DU-145 prostate)
> 100 µM and 2250 µM and > 1170 µM: TGI (HS 578T breast)

CN(c1ccccc1Cl)S(=O)(=O)c1ccccc1
> 100 µM: TGI (786-0 renal) | TGI (A549 NSCLC) | TGI (ACHN renal) | TGI (BT-549 breast) | TGI (CAKI-1 renal) | TGI (CCRF-CEM leukemia) | TGI (COLO 205 colon) | TGI (DU-145 prostate) | TGI (EKVX NSCLC) | TGI (HCT-116 colon) | TGI (HCT-15 colon) | TGI (HL-60(TB) leukemia) | TGI (HOP-62 NSCLC) | TGI (HS 578T breast) | TGI (HT29 colon) | TGI (IGROV1 ovarian) | TGI (K-562 leukemia) | TGI (KM12 colon) | TGI (LOX IMVI melanoma) | TGI (M14 melanoma) | TGI (MALME-3M melanoma) | TGI (MCF7 breast) | TGI (MDA-MB-231 breast) | TGI (MDA-MB-435) | TGI (MDA-N) | TGI (MOLT-4 leukemia) | TGI (NCI-H226 lung) | TGI (NCI-H23 lung) | TGI (NCI-H460 lung) | TGI (NCI-H522 lung) | TGI (NCI/ADR-RES ovarian) | TGI (OVCAR-3 ovarian) | TGI (OVCAR-4 ovarian) | TGI (OVCAR-5 ovarian) | TGI (OVCAR-8 ovarian) | TGI (PC-3 prostate) | TGI (RPMI-8226 leukemia) | TGI (SF-268 CNS) | TGI (SF-295 CNS) | TGI (SF-539 CNS) | TGI (SK-MEL-2 melanoma) | TGI (SK-MEL-28 melanoma) | TGI (SK-MEL-5 melanoma) | TGI (SK-OV-3 ovarian) | TGI (SN12C renal) | TGI (SNB-19 CNS) | TGI (SNB-75 CNS) | TGI (SR leukemia) | TGI (SW-620 colon) | TGI (TK-10 renal) | TGI (U251 CNS) | TGI (UACC-257 melanoma) | TGI (UACC-62 melanoma) | TGI (UO-31 renal)
